Reference: PubChem BioAssay (NCI)
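Growth conditions: 96-well plates. Treatment: test compound, 48 hours, 5 concentrations. Analysis: linear interpolation between bracketing concentrations; unreached endpoints set to highest concentration. GI50 marks 50% less growth. At the TGI there is no net growth.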

Key:
Test in all cases: NCI-60 cell line screen, 48 h
[1] = test system: HT29 colon
[2] = test system: KM12 colon
[3] = test system: MCF7 breast
[4] = test system: UACC-257 melanoma
[5] = test system: HCC-2998 colon
[6] = test system: OVCAR-3 ovarian
[7] = test system: T-47D breast
[8] = test system: RPMI-8226 leukemia
[9] = test system: COLO 205 colon
[10] = test system: LOX IMVI melanoma
[11] = test system: PC-3 prostate
[12] = test system: HCT-15 colon
[13] = test system: RXF 393 renal
[14] = test system: K-562 leukemia
[15] = test system: SK-MEL-28 melanoma
[16] = test system: SF-539 CNS
[17] = test system: MALME-3M melanoma
[18] = test system: SW-620 colon
[19] = test system: A498 renal
[20] = test system: DU-145 prostate
[21] = test system: SK-MEL-5 melanoma
[22] = test system: IGROV1 ovarian
[23] = test system: HCT-116 colon
[24] = test system: NCI-H23 lung
[25] = test system: 786-0 renal
[26] = test system: MOLT-4 leukemia
[27] = test system: NCI-H226 lung
[28] = test system: MDA-MB-231 breast
[29] = test system: CAKI-1 renal
[30] = test system: OVCAR-8 ovarian
[31] = test system: SNB-75 CNS
[32] = test system: EKVX NSCLC
[33] = test system: CCRF-CEM leukemia
[34] = test system: A549 NSCLC
[35] = test system: HOP-62 NSCLC
[36] = test system: UO-31 renal
[37] = test system: SN12C renal
[38] = test system: OVCAR-5 ovarian
[39] = test system: HL-60(TB) leukemia
[40] = test system: TK-10 renal
[41] = test system: ACHN renal
[42] = test system: SF-295 CNS
[43] = test system: OVCAR-4 ovarian
[44] = test system: UACC-62 melanoma
[45] = test system: SNB-19 CNS
[46] = test system: NCI/ADR-RES ovarian
[47] = test system: NCI-H522 lung
[48] = test system: SF-268 CNS
[49] = test system: SR leukemia
[50] = test system: MDA-MB-435
[51] = test system: SK-MEL-2 melanoma
[52] = test system: U251 CNS
[53] = test system: SK-OV-3 ovarian
[54] = test system: HOP-92 NSCLC
[55] = test system: HS 578T breast
[56] = test system: NCI-H460 lung
[57] = test system: M14 melanoma
[58] = test system: BT-549 breast

`N=C1c2nc3n(c2C(=O)c2nc4n(c21)CCCC4)CCCC3` was tested, and the GI50 [1] was 2.56 µM, the TGI [1] was 5.51 µM and the GI50 [2] was 16.6 µM. For the same compound, the TGI [2] was greater than 100 µM, the GI50 [3] was 1.36 µM and the TGI [3] was 3.61 µM. It also gave a GI50 [4] of 1.67 µM, a TGI [4] of 4.81 µM and a GI50 [5] of 3.74 µM. It also gave a TGI [5] of 12.8 µM, a GI50 [6] of 27.1 µM and a TGI [6] greater than 100 µM. The GI50 [7] was 11.7 µM, the TGI [7] was greater than 100 µM and the GI50 [8] was 27.5 µM. The TGI [8] was greater than 100 µM, the GI50 [9] was 1.83 µM and the TGI [9] was 3.39 µM. It also gave a GI50 [10] of 0.406 µM, a TGI [10] of 2.15 µM and a GI50 [11] greater than 68.8 µM. For the same compound, the TGI [11] was greater than 100 µM, the GI50 [12] was 2.07 µM and the TGI [12] was 6.62 µM. The GI50 [13] was 15.8 µM, the TGI [13] was 51 µM and the GI50 [14] was 19.8 µM. It also gave a TGI [14] greater than 100 µM, a GI50 [15] of 1.84 µM and a TGI [15] of 3.7 µM. It also gave a GI50 [16] of 2.42 µM, a TGI [16] of 5.2 µM and a GI50 [17] of 1.7 µM. The TGI [17] was 3.7 µM, the GI50 [18] was 3.8 µM and the TGI [18] was 24.4 µM. For the same compound, the GI50 [19] was 0.727 µM, the TGI [19] was 8.16 µM and the GI50 [20] was 1.5 µM. It also gave a TGI [20] of 2.9 µM, a GI50 [21] of 0.431 µM and a TGI [21] of 0.864 µM. The GI50 [22] was 41.6 µM, the TGI [22] was greater than 100 µM and the GI50 [23] was 19.8 µM. It also gave a TGI [23] greater than 100 µM, a GI50 [24] of 1.37 µM and a TGI [24] of 3.86 µM. The GI50 [25] was 32.2 µM, the TGI [25] was greater than 89.3 µM and the GI50 [26] was 47.2 µM. For the same compound, the TGI [26] was greater than 100 µM, the GI50 [27] was 1.08 µM and the TGI [27] was 3.38 µM. The GI50 [28] was 33.6 µM, the TGI [28] was greater than 100 µM and the GI50 [29] was 19.1 µM. The TGI [29] was greater than 83.2 µM, the GI50 [30] was 32.8 µM and the TGI [30] was greater than 100 µM. The GI50 [31] was 1.83 µM, the TGI [31] was 3.57 µM and the GI50 [32] was 44.7 µM. For the same compound, the TGI [32] was greater than 100 µM, the GI50 [33] was 20.5 µM and the TGI [33] was greater than 100 µM. For the same compound, the GI50 [34] was 1.98 µM, the TGI [34] was 4.33 µM and the GI50 [35] was 0.921 µM. It also gave a TGI [35] of 3.54 µM, a GI50 [36] of 4.03 µM and a TGI [36] of 28.6 µM. It also gave a GI50 [37] of 1.58 µM, a TGI [37] of 3.12 µM and a GI50 [38] of 2.28 µM. For the same compound, the TGI [38] was 4.89 µM, the GI50 [39] was 31 µM and the TGI [39] was greater than 84.3 µM. For the same compound, the GI50 [40] was 52.6 µM, the TGI [40] was greater than 100 µM and the GI50 [41] was 20.5 µM. For the same compound, the TGI [41] was greater than 100 µM, the GI50 [42] was 1.74 µM and the TGI [42] was 3.4 µM. The GI50 [43] was 24.7 µM, the TGI [43] was greater than 100 µM and the GI50 [44] was 0.784 µM. It also gave a TGI [44] of 2.04 µM, a GI50 [45] of 2.89 µM and a TGI [45] of 12.5 µM. For the same compound, the GI50 [46] was 35.6 µM, the TGI [46] was greater than 100 µM and the GI50 [47] was 4.17 µM. The TGI [47] was 26.1 µM, the GI50 [48] was 11.9 µM and the TGI [48] was greater than 74.9 µM. For the same compound, the GI50 [49] was 13.4 µM, the TGI [49] was greater than 79.3 µM and the GI50 [50] was 0.235 µM. The TGI [50] was 0.504 µM, the GI50 [51] was 23.4 µM and the TGI [51] was greater than 65 µM. For the same compound, the GI50 [52] was 5.75 µM, the TGI [52] was 48.7 µM and the GI50 [53] was 34.2 µM. For the same compound, the TGI [53] was greater than 100 µM, the GI50 [54] was 52.8 µM and the TGI [54] was greater than 100 µM. For the same compound, the GI50 [55] was 2.18 µM, the TGI [55] was 6.68 µM and the GI50 [56] was 1.59 µM. It also gave a TGI [56] of 3.54 µM, a GI50 [57] of 1.82 µM and a TGI [57] of 3.29 µM. The GI50 [58] was 2.22 µM and the TGI [58] was 4.94 µM.
`Cc1cc(C)c(O)c(CNCCCCCCNCc2cc(C)cc(C)c2O)c1` was tested, and the GI50 [1] was 1.73 µM, the TGI [1] was 3.82 µM and the GI50 [2] was 1.82 µM. The TGI [2] was 3.51 µM, the GI50 [3] was 1.54 µM and the TGI [3] was 3.22 µM. For the same compound, the GI50 [4] was 2.07 µM, the TGI [4] was 4.13 µM and the GI50 [5] was 1.02 µM. The TGI [5] was 2.39 µM, the GI50 [6] was 1.64 µM and the TGI [6] was 3.42 µM. The GI50 [7] was 1.5 µM, the TGI [7] was 3.36 µM and the GI50 [8] was 1.94 µM. For the same compound, the TGI [8] was 4.96 µM, the GI50 [9] was 1.67 µM and the TGI [9] was 3.32 µM. For the same compound, the GI50 [10] was 1.48 µM, the TGI [10] was 2.88 µM and the GI50 [11] was 1.99 µM. The TGI [11] was 4.28 µM, the GI50 [12] was 1.4 µM and the TGI [12] was 3.05 µM. The GI50 [13] was 1.59 µM, the TGI [13] was 3.08 µM and the GI50 [14] was 1.61 µM. The TGI [14] was 3.55 µM, the GI50 [15] was 1.66 µM and the TGI [15] was 3.28 µM. It also gave a GI50 [16] of 1.62 µM, a TGI [16] of 3.17 µM and a GI50 [17] of 1.6 µM. It also gave a TGI [17] of 3.17 µM, a GI50 [18] of 1.81 µM and a TGI [18] of 3.56 µM. For the same compound, the GI50 [19] was 1.32 µM, the TGI [19] was 3.15 µM and the GI50 [20] was 1.7 µM. It also gave a TGI [20] of 3.3 µM, a GI50 [21] of 1.61 µM and a TGI [21] of 3.09 µM. For the same compound, the GI50 [22] was 1.68 µM, the TGI [22] was 3.49 µM and the GI50 [23] was 1.73 µM. The TGI [23] was 3.43 µM, the GI50 [24] was 1.7 µM and the TGI [24] was 3.28 µM. The GI50 [25] was 1.42 µM, the TGI [25] was 2.92 µM and the GI50 [26] was 1.72 µM. For the same compound, the TGI [26] was 3.9 µM, the GI50 [27] was 1.83 µM and the TGI [27] was 3.72 µM. It also gave a GI50 [28] of 1.38 µM, a TGI [28] of 2.9 µM and a GI50 [29] of 1.97 µM. It also gave a TGI [29] of 4.49 µM, a GI50 [30] of 2.2 µM and a TGI [30] of 5.01 µM. The GI50 [31] was 1.33 µM, the TGI [31] was 2.63 µM and the GI50 [32] was 1.74 µM. The TGI [32] was 3.65 µM, the GI50 [33] was 2.19 µM and the TGI [33] was 5.72 µM. It also gave a GI50 [34] of 2.23 µM, a TGI [34] of 4.72 µM and a GI50 [35] of 1.77 µM. The TGI [35] was 3.6 µM, the GI50 [36] was 1.42 µM and the TGI [36] was 2.83 µM. The GI50 [37] was 1.83 µM, the TGI [37] was 3.92 µM and the GI50 [38] was 1.82 µM. It also gave a TGI [38] of 4.31 µM, a GI50 [39] of 1.84 µM and a TGI [39] of 3.77 µM. It also gave a GI50 [40] of 1.39 µM, a TGI [40] of 2.92 µM and a GI50 [41] of 1.91 µM. The TGI [41] was 3.69 µM, the GI50 [42] was 1.78 µM and the TGI [42] was 3.46 µM. The GI50 [43] was 1.51 µM, the TGI [43] was 3.75 µM and the GI50 [44] was 1.82 µM. It also gave a TGI [44] of 3.41 µM, a GI50 [45] of 1.98 µM and a TGI [45] of 4.59 µM. For the same compound, the GI50 [46] was 1.85 µM, the TGI [46] was 3.86 µM and the GI50 [47] was 1.78 µM. The TGI [47] was 3.67 µM, the GI50 [48] was 1.61 µM and the TGI [48] was 3.36 µM. The GI50 [49] was 1.34 µM, the TGI [49] was 3.84 µM and the GI50 [50] was 1.43 µM. It also gave a TGI [50] of 2.81 µM, a GI50 [51] of 1.91 µM and a TGI [51] of 3.67 µM. It also gave a GI50 [52] of 1.58 µM, a TGI [52] of 3.07 µM and a GI50 [53] of 1.83 µM. For the same compound, the TGI [53] was 3.67 µM, the GI50 [54] was 1.25 µM and the TGI [54] was 4.01 µM. It also gave a GI50 [55] of 1.65 µM, a TGI [55] of 3.88 µM and a GI50 [56] of 1.89 µM. It also gave a TGI [56] of 3.58 µM, a GI50 [57] of 1.72 µM and a TGI [57] of 3.59 µM. For the same compound, the GI50 [58] was 2.24 µM and the TGI [58] was 5.52 µM.
